SMILES strings stand for the structures. Values after ≈ are worked out from the molar mass of the structure shown. A value given as a limit tells only on which side of the number the result lay.

In one data set the target is human MT1 receptors (Homo sapiens, UniProt P48039). Description: Radioligand binding, 2-[125I]iodomelatonin competition at MT1. Conditions: cloned human MT1 in CHO cells; from IC50 by Cheng-Prusoff; mean±SD of three determinations; read-out: MT1 K i.
human MT1 receptors, sequence (P48039 whole entry): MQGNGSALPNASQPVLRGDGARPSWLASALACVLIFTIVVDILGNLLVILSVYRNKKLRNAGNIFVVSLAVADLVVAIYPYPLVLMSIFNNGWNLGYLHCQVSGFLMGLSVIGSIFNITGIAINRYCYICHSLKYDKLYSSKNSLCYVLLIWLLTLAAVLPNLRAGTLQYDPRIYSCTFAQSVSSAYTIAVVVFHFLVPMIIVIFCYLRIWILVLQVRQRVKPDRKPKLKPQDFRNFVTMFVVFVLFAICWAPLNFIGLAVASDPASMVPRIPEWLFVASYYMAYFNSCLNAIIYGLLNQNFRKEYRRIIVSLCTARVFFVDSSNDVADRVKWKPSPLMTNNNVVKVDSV
Description: (§1) The in vitro pharmacology experiments were conducted at Cerep (Celle‐Lévescault, France) following radioligand binding and cellular functional assays developed elsewhere.[60, 61, 62]
(§2) After incubation, the % of radioligand binding inhibition was determined via a scintillation counting method. The radioligand binding experiments were performed in triplicate. IC50 values were determined by nonlinear regression analysis of the competition curves using Hill equation curve fitting. The pK i values were calculated from the IC50 values in accordance with the Cheng‐Prusoff equation.[28]
As for `COc1cccc(N(CCNC(C)=O)c2ccccc2)c1` [Compound 2, N‐{2‐[(3‐methoxyphenyl)phenylamino]ethyl}acetamide, reference compound], the Ki was found to be 1.6 ± 0.14 nM.

In the case of `CC(=O)NCCN(c1ccc(F)cc1)c1cccc(Br)c1` [Compound 3, N‐{2‐[(3‐bromophenyl)‐(4‐fluorophenyl)amino]ethyl}acetamide, reference compound], the Ki was above 100 nM.

In the case of `COc1cccc(N(CCNC(N)=O)c2ccccc2)c1` [Compound 6 a, 1‐{2‐[(3‐Methoxyphenyl)phenylamino]ethyl}urea], the Ki was above 100 nM.

As for `CCNC(=O)NCCN(c1ccccc1)c1cccc(OC)c1` [Compound 6 b, 1‐Ethyl‐3‐{2‐[(3‐methoxyphenyl)phenylamino]ethyl}urea], the Ki is 20 ± 0.45 nM.

Tested on in another data set: not listed separately
Description: Experimental lipophilicity, shake-flask n-octanol/water. Format: physicochemical. Conditions: n-octanol/water (MOPS buffer); n-octanol/50 mM MOPS buffer pH 7.4, 25±1 °C; mean±SD of three; read-out: Log D oct,7.4.
Description: Chosen buffer was 50 mM zwitterionic MOPS (3‐morpholinopropanesulfonic acid), pH 7.4 to avoid ionic couple partitioning, with ionic strength adjusted to 0.15 M by KCl addition. Compounds, after partitioning overnight, and dilution of both phases with methanol, were dosed in the HPLC‐UV system, as detailed below. Reported log D oct,7.4 values are the mean of three measurements±standard deviation.
HPLC columns were a RP‐C18 Supelco Discovery (Supelco, Bellefonte, PA, USA), 5 μm, 150×4.6 mm i.d. for all compounds except 13, and a Phenomenex Gemini, 5 μm, 150×4.6 mm i.d. for compound 13 (Phenomenex). Elution conditions were optimized for each compound at a flow rate of 1 mL min^−1 employing mobile phases consisting of water and acetonitrile at different percentages, while UV detection was set at λ = 254 nm. For compound 13, the mobile phase consisted of a 10 mM ammonium acetate buffer pH 7.0 and methanol and the UV detection was set at λ = 281 nm.
For the molecule `COc1cccc(N(CCNC(C)=O)c2ccccc2)c1` [Compound 2, N‐{2‐[(3‐methoxyphenyl)phenylamino]ethyl}acetamide, reference compound], the logD was found to be 2.93 ± 0.01.

For the molecule `CC(=O)NCCN(c1ccc(F)cc1)c1cccc(Br)c1` [Compound 3, N‐{2‐[(3‐bromophenyl)‐(4‐fluorophenyl)amino]ethyl}acetamide, reference compound], the logD came to 3.84 ± 0.05.

On to `COc1cccc(N(CCNC(N)=O)c2ccccc2)c1` [Compound 6 a, 1‐{2‐[(3‐Methoxyphenyl)phenylamino]ethyl}urea], for which the logD was determined as 2.65 ± 0.02.

Consider `CCNC(=O)NCCN(c1ccccc1)c1cccc(OC)c1` [Compound 6 b, 1‐Ethyl‐3‐{2‐[(3‐methoxyphenyl)phenylamino]ethyl}urea], for which the logD turned out to be 3.3 ± 0.02.

Tested on in the next data set: not listed separately
Description: Metabolic stability in rat liver microsomes. Conditions: rat liver microsomes 1 mg protein/mL, 5 μM compound, 37 °C; mean±SD. Format: in vitro ADME.
Description: (§3) Each compound (final concentration: 5 μM) was incubated in the presence of rat or human liver microsomes (final concentration: 1 mg protein/mL) and of a NADPH‐regenerating system (final concentrations: 2 mM NADP^+, 10 mM glucose‐6‐phosphate, 0.4 U mL^−1 glucose‐6‐phosphate dehydrogenase, 5 mM MgCl2) in a 10 mM Phosphate Buffered Saline (PBS) solution, pH 7.4, at 37 °C. Compound was added after a 10 min pre‐incubation at 37 °C and. at stated time points, depending on compound kinetics, sample aliquots were withdrawn, metabolic reaction was quenched by acetonitrile addition (1 : 2), and after a centrifugation step (9000 g, 10 min, 4 °C) the supernatant was analyzed by HPLC‐UV‐VIS.
(§4) Apparent half‐lives (t1/2 in min) for the metabolic clearance of compounds were calculated from the pseudo first‐order rate constants (k) obtained by linear regression of the log chromatographic peak area versus time plots and are reported as means of three experiments±standard deviation. Intrinsic clearance (CLi) values of the compounds were calculated using the following equation: CLi (μL×min^−1×mg protein^−1)=k×V where V (μL×mg protein^−1)=incubation volume/mg protein added.
(§5) Pooled rat and human liver microsomes (20 mg/mL) were supplied by BD Biosciences (BD Biosciences, Woburn, MA, USA). Acetonitrile and methanol were HPLC grade and were supplied by Sigma‐Aldrich (Sigma‐Aldrich srl, Milan, Italy). Water was freshly bidistilled before use. All other reagents were purchased in the highest purity available.
(§6) PeakSimple 2.83 software was employed for data acquisition and HPLC peak integration. HPLC columns were a RP‐C18 Supelco Discovery (Supelco, Bellefonte, PA, USA), 5 μm, 150×4.6 mm i.d. for all compounds except 13, and a Phenomenex Gemini, 5 μm, 150×4.6 mm i.d. for compound 13 (Phenomenex). Elution conditions were optimized for each compound at a flow rate of 1 mL min^−1 employing mobile phases consisting of water and acetonitrile at different percentages, while UV detection was set at λ = 254 nm. For compound 13, the mobile phase consisted of a 10 mM ammonium acetate buffer pH 7.0 and methanol and the UV detection was set at λ = 281 nm.
Take `COc1cccc(N(CCNC(C)=O)c2ccccc2)c1` [Compound 2, N‐{2‐[(3‐methoxyphenyl)phenylamino]ethyl}acetamide, reference compound]: the “CLi Rat LM (intrinsic clearance)” value was 408±85 μL min^−1 mg prot^−1.

On to `CC(=O)NCCN(c1ccc(F)cc1)c1cccc(Br)c1` [Compound 3, N‐{2‐[(3‐bromophenyl)‐(4‐fluorophenyl)amino]ethyl}acetamide, reference compound], for which the “CLi Rat LM (intrinsic clearance)” value is recorded as 38.1±6.0 μL min^−1 mg prot^−1.

For `COc1cccc(N(CCNC(N)=O)c2ccccc2)c1` [Compound 6 a, 1‐{2‐[(3‐Methoxyphenyl)phenylamino]ethyl}urea], the “CLi Rat LM (intrinsic clearance)” value is given as 44.2±1.0 μL min^−1 mg prot^−1.

As for `CCNC(=O)NCCN(c1ccccc1)c1cccc(OC)c1` [Compound 6 b, 1‐Ethyl‐3‐{2‐[(3‐methoxyphenyl)phenylamino]ethyl}urea], the “CLi Rat LM (intrinsic clearance)” value was 98.1±6.8 μL min^−1 mg prot^−1.

The same data set, now with this note: rat liver microsomes 1 mg protein/mL, 5 μM compound, NADPH-regenerating system, pH 7.4, 37 °C; mean±SD; read-out: t 1/2 Rat LM.
On to `COc1cccc(N(CCNC(C)=O)c2ccccc2)c1` [Compound 2, N‐{2‐[(3‐methoxyphenyl)phenylamino]ethyl}acetamide, reference compound], for which the half-life at 5 μM was 1.7 ± 0.4 min.

`CC(=O)NCCN(c1ccc(F)cc1)c1cccc(Br)c1` [Compound 3, N‐{2‐[(3‐bromophenyl)‐(4‐fluorophenyl)amino]ethyl}acetamide, reference compound]: the half-life at 5 μM worked out at 18.2 ± 2.8 min.

Regarding `COc1cccc(N(CCNC(N)=O)c2ccccc2)c1` [Compound 6 a, 1‐{2‐[(3‐Methoxyphenyl)phenylamino]ethyl}urea], the half-life at 5 μM was determined as 15.7 ± 0.4 min.

Turning to `CCNC(=O)NCCN(c1ccccc1)c1cccc(OC)c1` [Compound 6 b, 1‐Ethyl‐3‐{2‐[(3‐methoxyphenyl)phenylamino]ethyl}urea], the half-life at 5 μM is 7.1 ± 0.5 min.

Tested on in a further data set: not listed separately
Description: Thermodynamic solubility, shake flask method. Conditions: buffer pH 1.0, simulated gastric fluid, thermodynamic from solid, pH 1.0 buffer, room temperature overnight, mean±SD, triplicate, read-out: Solubility pH 1.0. Format: physicochemical.
Description: Thermodynamic solubility values were measured in two different buffers (pH 1.0; pH 7.4) by the shake flask method.[65] 1 mg of each compound was placed in 1 mL of appropriate buffer and shaken at room temperature overnight. The resulting suspension was centrifuged (10 min, 10000 g, 20 °C) and the supernatant analyzed by HPLC‐UV. Solubility values were interpolated from calibration curves prepared from concentrated DMSO stock solutions of each compound. Reported solubility values are the mean of three measurements±standard deviation.
It consisted of a LC‐10ADvp solvent delivery module, a 20 μL Rheodyne sample injector (Rheodyne LLC, Rohnert Park, CA, USA) and a SPD‐10Avp UV‐VIS detector. PeakSimple 2.83 software was employed for data acquisition and HPLC peak integration. […] Elution conditions were optimized for each compound at a flow rate of 1 mL min^−1 employing mobile phases consisting of water and acetonitrile at different percentages, while UV detection was set at λ = 254 nm.
In the case of `COc1cccc(N(CCNC(C)=O)c2ccccc2)c1` [Compound 2, N‐{2‐[(3‐methoxyphenyl)phenylamino]ethyl}acetamide, reference compound], the solubility – broadly, the concentration that dissolves in the medium under given conditions – was 125 ± 5 µg/mL (≈ 440 µM).

For the molecule `CC(=O)NCCN(c1ccc(F)cc1)c1cccc(Br)c1` [Compound 3, N‐{2‐[(3‐bromophenyl)‐(4‐fluorophenyl)amino]ethyl}acetamide, reference compound], the solubility is 6.9 ± 0.1 µg/mL (≈ 19.6 µM).

In the case of `COc1cccc(N(CCNC(N)=O)c2ccccc2)c1` [Compound 6 a, 1‐{2‐[(3‐Methoxyphenyl)phenylamino]ethyl}urea], the solubility was 364 ± 3.7 µg/mL (≈ 1280 µM).

In the case of `CCNC(=O)NCCN(c1ccccc1)c1cccc(OC)c1` [Compound 6 b, 1‐Ethyl‐3‐{2‐[(3‐methoxyphenyl)phenylamino]ethyl}urea], the solubility is 14.9 ± 0.6 µg/mL (≈ 47.5 µM).

The data set is the same for the next values; noted with them: buffer pH 7.4, aqueous buffer, thermodynamic from solid, pH 7.4 buffer, room temperature overnight, mean±SD, triplicate, read-out: Solubility pH 7.4.
`COc1cccc(N(CCNC(C)=O)c2ccccc2)c1` [Compound 2, N‐{2‐[(3‐methoxyphenyl)phenylamino]ethyl}acetamide, reference compound]: the solubility came out at 104 ± 5 µg/mL (≈ 366 µM).

`CC(=O)NCCN(c1ccc(F)cc1)c1cccc(Br)c1` [Compound 3, N‐{2‐[(3‐bromophenyl)‐(4‐fluorophenyl)amino]ethyl}acetamide, reference compound]: the solubility turned out to be 5.1 ± 0.2 µg/mL (≈ 14.5 µM).

As for `COc1cccc(N(CCNC(N)=O)c2ccccc2)c1` [Compound 6 a, 1‐{2‐[(3‐Methoxyphenyl)phenylamino]ethyl}urea], the solubility amounted to 311.4 ± 2.6 µg/mL (≈ 1090 µM).

For `CCNC(=O)NCCN(c1ccccc1)c1cccc(OC)c1` [Compound 6 b, 1‐Ethyl‐3‐{2‐[(3‐methoxyphenyl)phenylamino]ethyl}urea], the solubility amounted to 10.2 ± 1.7 µg/mL (≈ 32.5 µM).

Tested on in the next data set: not listed separately
Description: Metabolic stability in human liver microsomes. Format: in vitro ADME. Conditions: human liver microsomes 1 mg protein/mL, 5 μM compound, 37 °C; mean±SD.
Description: as §3, §4, §5, §6
Regarding `COc1cccc(N(CCNC(C)=O)c2ccccc2)c1` [Compound 2, N‐{2‐[(3‐methoxyphenyl)phenylamino]ethyl}acetamide, reference compound], the “CLi Human LM (intrinsic clearance)” value was found to be 17±1 μL min^−1 mg prot^−1.

With `CC(=O)NCCN(c1ccc(F)cc1)c1cccc(Br)c1` [Compound 3, N‐{2‐[(3‐bromophenyl)‐(4‐fluorophenyl)amino]ethyl}acetamide, reference compound], the “CLi Human LM (intrinsic clearance)” value is 9.7±0.5 μL min^−1 mg prot^−1.

For the molecule `COc1cccc(N(CCNC(N)=O)c2ccccc2)c1` [Compound 6 a, 1‐{2‐[(3‐Methoxyphenyl)phenylamino]ethyl}urea], the “CLi Human LM (intrinsic clearance)” value is recorded as 9.1±1.5 μL min^−1 mg prot^−1.

`CCNC(=O)NCCN(c1ccccc1)c1cccc(OC)c1` [Compound 6 b, 1‐Ethyl‐3‐{2‐[(3‐methoxyphenyl)phenylamino]ethyl}urea]: the “CLi Human LM (intrinsic clearance)” value is given as 45.1±3.0 μL min^−1 mg prot^−1.

Still in this data set, the particulars now being: human liver microsomes 1 mg protein/mL, 5 μM compound, NADPH-regenerating system, pH 7.4, 37 °C; mean±SD; read-out: t 1/2 Human LM.
`COc1cccc(N(CCNC(C)=O)c2ccccc2)c1` [Compound 2, N‐{2‐[(3‐methoxyphenyl)phenylamino]ethyl}acetamide, reference compound]: the half-life at 5 μM came to 40.8 ± 1.1 min.

With `CC(=O)NCCN(c1ccc(F)cc1)c1cccc(Br)c1` [Compound 3, N‐{2‐[(3‐bromophenyl)‐(4‐fluorophenyl)amino]ethyl}acetamide, reference compound], the half-life at 5 μM turned out to be 71.2 ± 3.4 min.

As to `COc1cccc(N(CCNC(N)=O)c2ccccc2)c1` [Compound 6 a, 1‐{2‐[(3‐Methoxyphenyl)phenylamino]ethyl}urea], the half-life at 5 μM came to 77.5 ± 13.4 min.

Turning to `CCNC(=O)NCCN(c1ccccc1)c1cccc(OC)c1` [Compound 6 b, 1‐Ethyl‐3‐{2‐[(3‐methoxyphenyl)phenylamino]ethyl}urea], the half-life at 5 μM was 15.4 ± 1 min.

Another data set addresses T1, human MT2 receptors (Homo sapiens, UniProt P49286).
T1 sequence (P49286 1-362): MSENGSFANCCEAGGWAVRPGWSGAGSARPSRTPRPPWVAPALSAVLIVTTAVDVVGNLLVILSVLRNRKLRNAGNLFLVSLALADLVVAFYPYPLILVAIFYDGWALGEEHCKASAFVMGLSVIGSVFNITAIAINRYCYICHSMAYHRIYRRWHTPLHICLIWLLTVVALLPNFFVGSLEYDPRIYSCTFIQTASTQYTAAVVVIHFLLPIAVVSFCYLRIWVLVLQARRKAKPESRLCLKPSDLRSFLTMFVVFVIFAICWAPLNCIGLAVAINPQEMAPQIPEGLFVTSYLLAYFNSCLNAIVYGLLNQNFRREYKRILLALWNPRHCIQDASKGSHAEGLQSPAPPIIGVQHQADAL
Description: Radioligand binding, 2-[125I]iodomelatonin competition at MT2. Conditions: cloned human MT2 in CHO cells; from IC50 by Cheng-Prusoff; mean±SD of three determinations; read-out: MT2 K i.
Description: as §1, §2
Take `COc1cccc(N(CCNC(C)=O)c2ccccc2)c1` [Compound 2, N‐{2‐[(3‐methoxyphenyl)phenylamino]ethyl}acetamide, reference compound]: the Ki was 0.29 ± 0.1 nM.

On to `CC(=O)NCCN(c1ccc(F)cc1)c1cccc(Br)c1` [Compound 3, N‐{2‐[(3‐bromophenyl)‐(4‐fluorophenyl)amino]ethyl}acetamide, reference compound], for which the Ki was 1.4 ± 0.08 nM.

Take `COc1cccc(N(CCNC(N)=O)c2ccccc2)c1` [Compound 6 a, 1‐{2‐[(3‐Methoxyphenyl)phenylamino]ethyl}urea]: the Ki was 10 ± 0.13 nM.

As for `CCNC(=O)NCCN(c1ccccc1)c1cccc(OC)c1` [Compound 6 b, 1‐Ethyl‐3‐{2‐[(3‐methoxyphenyl)phenylamino]ethyl}urea], the Ki was 0.65 ± 0.03 nM.

(Values after PMC8518537, “N‐(Anilinoethyl)amide Melatonergic Ligands with Improved Water Solubility and Metabolic Stability” (Chemmedchem, 2021).)
